Assay results reported in patent US20240383865A1, “HIGH-ENERGY-VIOLET-ABSORBING VINYLIC MONOMERS” (Alcon Inc., priority 2023, published 2024).
Converted amounts (≈) assume the structure as drawn.

Tests used:
Type in all cases: physicochemical
[1] = Absorption edge of germanium photoinitiators
[2] = Solubility of HEVL-absorbing vinylic monomers in 1-propanol
Procedure: This example illustrates the correlation between the melting point and solubility of HEVL-absorbing vinylic monomers of
As anticipated, solubility in 1-propanol is improved, reaching >4.0 mg/ml (Table 1).

[3] = UV/visible absorption spectra of dilute solutions (40 ppm, 1 cm cuvette); details: for UV/visible absorption profiles of UV28 and UV35 compared: 40 ppm, FIG. 3
[4] = Dissolution of benzotriazole monomer in lens formulations; details: for Dissolution in Lightstream formulation: formulations 6-1 (UV28) and 6-2 (UV35), mixing at room temperature then 40° C.; for Dissolution in thermally cured formulations: formulations 6-3 (UV28) and 6-4 (UV35), mixed at room temperature 1-2 hours
Procedure: All formulations in the amount of 10 g are mixed at room temperature for 1-2 hours. Following initial mixing, Lightstream formulations (6-1 and 6-2) are mixed for an additional 1-2 hours at 40° C. […] Both benzotriazoles-UV28 and UV35 dissolve in thermally cured formulations (6-3 and 6-4). Room temperature and refrigerated (3° C.) conditions are tested.

C[CH2][Ge]([CH2]C)([C](=O)c1ccc(OC)cc1)[C](=O)c1ccc(OC)cc1 [BMBDE-Ge, Bis(4-methoxybenzoyl)diethylgermanium]
Absorption edge [1]: 470 nm

C=C(C)C(=O)OCCCOc1cc(-n2nc3ccc(Cl)cc3n2)c(O)c(C(C)(C)C)c1 [UV28, 2-{2′-Hydroxy-3′-tert-butyl-5′-[3′-methacryloyloxypropoxy]phenyl}-5-chloro-2H-benzotriazole, reference compound]
Solubility in PrOH [2]: 1500 µg/mL (≈ 3.38 mM) | Absorption Peak ([3]; 40 ppm in 1-propanol): 364 nm | UV/visible absorption profiles of UV28 and UV35 compared [3]: equivalent | Dissolution in Lightstream formulation [4]: does not dissolve | Dissolution in thermally cured formulations [4]: dissolve

CCc1ccccc1[C](=O)[Ge]([C](=O)c1ccccc1CC)([C](=O)c1ccccc1CC)[C](=O)c1ccccc1CC [TEB-Ge, tetrakis(2-ethylbenzoyl)-germanium]
Absorption edge [1]: 490 nm

C=C(C)C(=O)OCCOCCOc1cc(-n2nc3ccc(Cl)cc3n2)c(O)c(C(C)(C)C)c1 [UV35, 2-propenoic acid, 2-methyl-, 2-[2-[3-(5-chloro-2H-benzotriazol-2-yl)-5-(1,1-dimethylethyl)-4-hydroxyphenoxy]ethoxy]ethyl ester]
Solubility in PrOH [2]: >4000 µg/mL | solubility ([2]; organic solvent or mixture, read-out: Solubility in PrOH): > 4000 µg/mL | UV/visible absorption profiles of UV28 and UV35 compared [3]: equivalent | Dissolution in Lightstream formulation [4]: dissolves completely | Dissolution in thermally cured formulations [4]: dissolve
